In article PMC6474902, “Examination of novel 4-aminoquinoline derivatives designed and synthesized by a hybrid pharmacophore approach to enhance their anticancer activities” (Scientific Reports, 2019):
Where “and” joins values, the source holds several entries; their conditions need not be identical. Equal entries are not always repeated.

Experiments:
Assay type in all cases: cell-based, human
HeLa S3 cells = test: Mitotic spindle/centrosome morphology by confocal microscopy; conditions: 5 μM, 6 h after nocodazole synchronization
Text: To gain further insight into the cellular mechanism involved in the cell cycle arrest, we examined cell morphology in the context of mitotic progress. […] Many of these cells are apparently arrested at the spindle checkpoint stage. Even those cells undergo cell division (probably after prolonged arrest) often segregated with uneven cell sizes (arrows in Fig. 6a).
Figure 6 Compound 13 causes the formation of multiple spindle poles and uneven segregation. (a) HeLa S3 cells were synchronized at G2/M by nocodazole, followed by incubation for 6 h in drug-free medium in the absence (Sham control) or presence of 5 μM of compound 13. Note the presence of uneven cell sizes (arrows) which were likely generated as a result of nondisjuctional chromosome segregation during mitosis. […] In contrast, the untreated control sample contains very few cells with abnormal spindles.
All immunocytochemistry experiments were visualized by confocal microscopy using a Zeiss 510 Meta laser scanning microscope (Carl Zeiss) equipped with a 63× objective lens. Three lasers were utilized for excitation with the following band pass filter settings used for detection: Argon 488 nm (band pass 505–530), HeNe 543 nm (long pass 560) and 633 nm (long pass 650). All images were captured and analyzed using LSM 510 software included with the microscope (LSM Image Examiner, Carl Zeiss).

HeLa = test: Combination with bortezomib, cell death; conditions: 48 h post-treatment; BTZ 6 nM, compound 13 0.75 µM, alone or combined
184B5 = test: SRB antiproliferative/antigrowth assay, non-cancer cells; conditions: Homo sapiens, 184B5, 48 h, read-out: GI50 184B5
Method in brief: (§1)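 Cells seeded 24 h before exposure to seven concentrations (100 µM to 0.0064 µM) for 48 h at 37 °C. Growth by TCA fixation and SRB staining, absorbance 515–564 nm, relative to time-zero and untreated controls; GI50 from variable-slope sigmoidal fit, reported as greater/less than range limits when not reached.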

MCF10A = test: as above
Method in brief: as §1

MCF7 cells = test: LysoTracker Red staining of lysosomal volume; conditions: 5 μM, 48 h
Description: Since the structure of compound 13 contains the main scaffold of CQ, we examined whether cells treated with compound 13 also results an increase in the lysosomal volume.
Figure 7 Lysosomal volumes are increased in MCF7 cells treated with compound 13. Lysomes were visualized by treating MCF7 cells with lysoTracker Red for 48 h in the absence (Sham) or presence of 5 μM compound 13. The nuclei of cells in rows a and c were visualized by staining with DRAQ5. Note that rows a, c and e are enlarged images.
LysoTracker Red sDND-99 staining was carried out as recommended by the manufacturer (Molecular Probes, Eugene, OR). Briefly, cells grown on a cover slip were incubated in 50 nM LysoTracker Red DND-99 in serum-free RPMI-1640 medium for 30 min and then rinsed once with serum-free medium. The cells were washed three times with ice-cold medium, incubated in fresh medium for 45 min at 37 °C, and then washed once with fresh medium. Subsequently, the cells were examined by fluorescence microscopy using two filters (for green and red images) sequentially. Merging the two color images was done using Northern Eclipse software.

MCF7 = test: SRB antiproliferative/antigrowth assay
Method in brief: as §1

Q: For `O=[N+]([O-])c1ccc(S(=O)(=O)N2CCN(c3ccnc4cc(Cl)ccc34)CC2)c([N+](=O)[O-])c1` [Compound 13, 7-Chloro-4-(4-(2,4-dinitrophenylsulfonyl)piperazin-1-yl)quinoline], which “mitotic cells with multiple centrosomes / multiple spindle phenotypes” value (HeLa S3 cells) is on record?
A: 44% and 44.4%

Q: What about the cell death (HeLa) of the same compound?
A: neither 6 nM BTZ nor 0.75 µM of compound 13 resulted in substantial HeLa cell death

Q: What about the GI50 (184B5) of the same compound?
A: 9 ± 0.1 µM

Q: What about the GI50 (MCF10A; Homo sapiens, MCF-10A, 48 h, read-out: GI50 MCF10A) of the same compound?
A: 12.3 ± 0.1 µM

Q: What about the “higher concentration required for the same GI50 against non-cancer than cancer cells” value (MCF10A; MDA-MB468 vs MCF10A) of the same compound?
A: up to 17.6 fold

Q: What about the lysosomal volume (MCF7 cells) of the same compound?
A: substantial increase in lysosomal volume

Q: And the GI50 (MCF7; Homo sapiens, MCF7, 48 h, read-out: GI50 MCF7)?
A: 2.3 ± 0.1 µM

Q: What about the “more effective than cisplatin (MCF7)” value (MCF7; ratio of GI50 values) of the same compound?
A: 11.1 fold
